The record followed here is patent publication US20070254907A1, “COMPOSITIONS AND METHODS FOR CONTROLLING INFESTATION” (HATCHTECH PTY LTD, priority 2003, published 2007).

For one assay, the system named is Plutella xylostella eggs. Kind of assay: whole plant or invertebrate. It is filed as in vivo. The conditions noted are these: for ovicidal efficacy against Plutella: 1% diethoxyglycol (FIG. 7). The method, then:
The ovicidal efficacy of 2-acetyl-1-tetralone was also tested against Plutella eggs.

Assay [1] relates to Helicoverpa armigera eggs. Put plainly: Egg hatching of Helicoverpa armigera. The settings on record: 1% diethoxyglycol in water (FIG. 6).
The subject of another assay is H. contortus eggs. Put plainly: Egg hatching in Haemonchus contortus. The assay is classed as in vivo. The method, then: In an attempt to improve control of H. contortus the effects of the compound 5,5′-dimethyl-2,2′-dipyridyl was examined on H. contortus eggs. Eggs were recovered from the faeces of infected sheep using a standard sucrose floatation method. The eggs were corrected to a density of approximately 2,500 eggs per mL and were then exposed to varying concentrations of compound and incubated for 48 hours at 25° C. The eggs were then examined to determine the ovicidal efficacy of the compound in comparison to untreated control and a solvent only control.
In addition, the ovicidal efficacy of the compound 2-acetyl-1-tetralone was examined against H. contortus (FIG. 10). The same protocol was used as described for 5,5′-dimethyl-2,2′-dipyridyl.

As for `CC(=O)C1CCc2ccccc2C1=O` (centres unmarked) [2-acetyl-1-tetralone], the “ovicidal efficacy against Plutella” value in the assay with Plutella xylostella eggs (0.5 mM) is “no inhibition observed”; with Plutella xylostella eggs (2 and 1 mM), “strong ovicidal efficacy”. In the assay with Plutella xylostella eggs (Plutella xylostella, Plutella (P), 1 mM, read-out: Ovicidal activity %), the inhibition at 1000 µM stood at 100%. Besides, the inhibition at 10000 µM in the assay on Plutella xylostella eggs (Plutella xylostella, Plutella (P), 10 mM, read-out: Ovicidal activity %) stood at 100%. Also, the figures for the “ovicidal efficacy against H. armigera eggs” value in assay [1] (1 mM) and in assay [1] (2 mM) were “efficacy declining” and “strong ovicidal efficacy”, respectively. In addition, the “inhibition of H. contortus egg hatch” value is given as “Partial inhibition of egg hatching” in the assay on H. contortus eggs (22 ug/mL (0.1 mM) (FIG. 10)); “highly effective at inhibiting egg hatch” in the assay with H. contortus eggs (220 ug/mL (1 mM) and 110 ug/mL (0.5 mM) (FIG. 10)).
